Patent publication US20100247491A1, “Potentiation of Stem Cell Homing and Treatment of Organ Dysfunction or Organ Failure” (priority 2007, published 2010)

Legend:
MSCs = experiment: MSC migration towards SDF-1 in a transwell culture system; type: cell-based, Fisher 344 rats; conditions: pre-incubation of MSCs with the agent, FIG. 7
Text: AMD 3100 is a non-peptide antagonist of CXCR4 and Diprotin A (Ile-Pro-Ile, Peptides International, Louisville, Ky.) is a commonly used example of a CD26 inhibitor. […] Thus, the invention provides for the use of a CD26 inhibitor for the treatment of renal organ dysfunction (i.e., damage or injury), particularly, in combination with the use of MSCs. For example, it is believed that inhibition of SDF-1 inactivation will increase the homing of administered MSCs to an injured kidney and potentiate renal repair.
Bone marrow-derived MSCs from Fisher 344 rats were used for in vitro experiments. […] In addition, cultured MSCs express functional CD26 and can effectively inactivate SDF-1. […] As a result of the in vitro data, it is reasoned that inhibiting CD26 will augment the SDF-1-CXCR4 mediated chemotactic activity of MSCs in vivo. Thus, the invention relates to pre-treatment or co-administration of MSCs with a CD26 inhibitor to augment the homing and renal protective functions of MSCs administered to a subject to treat a disease involving organ failure or organ dysfunction.

rats with I/R ARF = experiment: I/R ARF rat model, CD26 inhibitor given before MSCs (Example II); type: in vivo; conditions: MSCs following Diprotin A
Text: All procedures involving animals are approved by the respective Institutional Animal Care and Use Committees of the University of Utah, Veterans Affairs Medical Center (Salt Lake City, Utah), Indiana University (Indianapolis, Ind.), and the University of Hamburg (Hamburg, Germany). Animals are housed at a constant temperature and humidity, with a 12:12-h light-dark cycle, and have unrestricted access to a standard diet and tap water. Adult male Sprague-Dawley (SD) and Fisher 344 (F344) rats weighing 200-300 g are preferably used (Charles River, Wilmington, Mass.).
I/R ARF is induced in isoflurane-anesthetized animals, and rectal temperature is maintained at 37° C. After a midabdominal laparatomy, kidneys are exposed and renal pedicles are clamped with atraumatic vascular clamps for about 40 min. […]
Quantification of cell numbers. CFDA-labeled green fluorescing cells are examined and quantified in kidneys at 2, 24, 36, 48, 60, and/or 72 h after ARF and cell infusions. Nuclei are stained with either Hoechst 33342 or propidium iodide, and nuclei are counted in at least three high-power fields (HPF) per section based on a calibrated confocal micrometer measurement bar. After this, total cell numbers of the studied tissue sections are calculated based on the number of nuclei and surface area of the section.
Renal function may be assessed by serum creatinine and/or blood urea nitrogen levels. […]

Sca-1+lin-donor cells = conditions: donor cells treated with 5 mM Diprotin A for 15 minutes before transplant; FIG. 4, Christopherson II et al. (2004); cited from earlier work

Row | Compound | MSC migration towards SDF-1 (MSCs) | renal function (serum creatinine and/or blood urea nitrogen) (rats with I/R ARF; by at least days 2 and/or 3, relative to MSC only treated animals) | migration of MSCs to the kidney (rats with I/R ARF; relative to MSC only treated animals) | homing of HSCs from the circulation to bone (Sca-1+lin-donor cells)
1 | c1cc(CN2CCCNCCNCCCNCC2)ccc1CN1CCCNCCNCCCNCC1 [AMD 3100] | decreased |  |  | 
2 | H-Ile-Pro-Ile-OH [Diprotin A] | significantly increased | significantly improved renal function | increased migration of MSCs to the kidney | can increase homing of HSCs
